Legend:
S. mutans = test: Toxic cargo DM assay; format: cell-based, Streptococcus mutans; conditions: monoculture, 1 min; CHX 0.033% and H2O2 0.25% final concentration, no DM (FIG. 8A left)
Description: (§1) DM was hydrated in THB only (control) or THB containing either hydrogen peroxide (1.5%) or chlorhexidine (0.2%) to create a 10% (w/v) slurry. For Applicant's DM assays, 250 μl of hydrated DM G25 superfine (125 μl final volume; 12.5 mg) was added to a Micro Bio-Spin chromatography column (BioRad, Hercules, Calif.) and excess liquid was removed by centrifugation at 100×g for 30 seconds, leaving DM with toxic cargo in the lumen. 125 μl of THB (the same volume of excess toxic cargo removed by filtration) was added to the DM column to create a 10% slurry (w/v), followed by the immediate addition of 500 μl of culture as described above for Applicant's basic DM assay. For control assays containing no DM, 125 μl of THB or THB containing toxic cargo (the same volume that is present in the DM lumen) was added to the spin column containing 125 THB followed by the addition of 500 μl of culture as described above for Applicant's basic DM assay. After incubation for 1 minute at RT, the cell/DM mixture was centrifuged for 1 minute at 100×g. The flow-through was serial diluted in PBS, and serial dilutions were plated onto THB (S. gordonii) or THB containing 1.5 μg/ml erythromycin (S. mutans) or LB (E. coli) agar and incubated at 37° C.+5% CO2. […]

S. gordonii = test: Toxic cargo DM assay; format: cell-based, Streptococcus gordonii; conditions: monoculture, 1 min; CHX 0.033% and H2O2 0.25% final concentration, no DM (FIG. 8A left)
Description: as §1

Structure (SMILES) | Total viable S. mutans after antimicrobial alone (no DM) (S. mutans) | Total viable S. gordonii after antimicrobial alone (no DM) (S. gordonii)
[H]/N=C(\N/C(=N/[H])NCCCCCCNC(=N)NC(=N)Nc1ccc(Cl)cc1)Nc1ccc(Cl)cc1 [CHX, chlorhexidine] | decreased the amount of total viable S. mutans and S. gordonii | decreased the amount of total viable S. mutans and S. gordonii
OO [H2O2, hydrogen peroxide] | decreased the amount of total viable S. mutans and S. gordonii | decreased the amount of total viable S. mutans and S. gordonii
